One assay deals with NUGC-3. Kind of assay: Cytotoxicity against human NUGC3 cells. Type of assay: functional.
Another assay concerns PC-3. As to the kind of experiment: Cytotoxicity against human PC3 cells. The assay is classed as functional.
Assay [1] can be described thus: Inhibition of LPS-induced NF-kappaB transcriptional activity in mouse RAW264.7 cells. The assay is classed as cell-based.
Another assay deals with HCT-15. As to the kind of experiment: Cytotoxicity against human HCT15 cells. Type of assay: functional.
The subject of a further assay is NCI-H23. Kind of assay: Cytotoxicity against human NCI-H23 cells. The assay is classed as functional.
A further assay has as its system ACHN. As to the kind of experiment: Cytotoxicity against human ACHN cells. Type of assay: functional.
For a further assay, the system named is MDA-MB-231. Kind of assay: Cytotoxicity against human MDA-MB-231 cells. The assay is classed as functional.

The values that follow come from ChEMBL document CHEMBL1208701, “Structure-activity relationship of indoline-2-carboxylic acid N-(substituted)phenylamide derivatives” (Bioorg Med Chem Lett, 2010).

Regarding `CC(C)(C)C(=O)N1c2ccccc2CC1C(=O)Nc1ccc(C(F)(F)F)cc1` (centres undefined), the GI50 in the assay with NUGC-3 was 6.58 µM; in the assay on PC-3, 3.89 µM; in the assay with HCT-15 it was 5.54 µM; with NCI-H23, 3.65 µM; in the assay with ACHN, 5.63 µM; in the assay with MDA-MB-231, 7.31 µM. Further, the IC50 in assay [1] stood at 12.7 µM.
Consider `CC(=O)N1c2ccccc2CC1C(=O)Nc1ccc(C(F)(F)F)cc1` (centres undefined), for which the GI50 with NUGC-3, with PC-3, in the assay with HCT-15, in the assay on NCI-H23, in the assay with ACHN and in the assay with MDA-MB-231 was greater than 10 µM each time. Besides, the IC50 in assay [1] is greater than 100 µM.
As for `CCCCCCCCC(=O)N1c2ccccc2CC1C(=O)Nc1ccc(C(F)(F)F)cc1` (centres undefined), the GI50 in the assay with NUGC-3 is 3.45 µM; with PC-3 it was 1.86 µM; with HCT-15, 2.07 µM; with NCI-H23 it was 1.62 µM; in the assay with ACHN, 3.78 µM; with MDA-MB-231, greater than 10 µM. In assay [1], this compound gave an IC50 greater than 100 µM.
For the compound `CCCCCCCCC(=O)N1c2ccccc2CC1C(=O)Nc1cc(Cl)cc(Cl)c1` (centres undefined), the GI50 with NUGC-3 came to 1.52 µM; in the assay with PC-3, 1.61 µM; in the assay with HCT-15 it was 1.73 µM; in the assay on NCI-H23 it was 1.28 µM; in the assay on ACHN it was 1.89 µM; with MDA-MB-231 it was 3.57 µM. The compound also came in with an IC50 in assay [1] of 12.6 µM.
For the compound `CC(C)(C)C(=O)N1c2ccccc2CC1C(=O)Nc1cc(Cl)cc(Cl)c1` (centres undefined), the GI50 is 3.35 µM with NUGC-3; 4.18 µM with PC-3; 3.81 µM in the assay on HCT-15; 3.46 µM in the assay on NCI-H23; 3.68 µM in the assay with ACHN; 4.97 µM in the assay with MDA-MB-231. Further, half-maximal inhibition in assay [1] (IC50) was put at 14.5 µM.
In the case of `Cc1ccc(S(=O)(=O)N2c3ccccc3CC2C(=O)Nc2cc(Cl)cc(Cl)c2)cc1` (centres undefined), the concentration for 50% growth inhibition (GI50) with NUGC-3 is greater than 10 µM; with PC-3, greater than 10 µM; in the assay on HCT-15, greater than 10 µM; with NCI-H23, 7.53 µM; with ACHN, greater than 10 µM; in the assay on MDA-MB-231, greater than 10 µM. Moreover, the IC50 in assay [1] is greater than 100 µM.
Turning to `CC(=O)N1c2ccccc2CC1C(=O)Nc1cc(Cl)cc(Cl)c1` (centres undefined), the GI50 in the assay with NUGC-3 is 7.86 µM; in the assay on PC-3 it was 6.37 µM; with HCT-15 it was 8.68 µM; in the assay on NCI-H23, 7.68 µM; with ACHN it was greater than 10 µM; in the assay on MDA-MB-231, greater than 10 µM. For the same compound, the IC50 in assay [1] was 34.1 µM.

By GI50 is commonly meant the concentration at which growth is held to half of that of the control. Broadly, the IC50 is the concentration that inhibits the measured activity by half.
